Laboratory results taken from ChEMBL document CHEMBL3885881, “DrugMatrix”.

Species on record: Rattus norvegicus
Test: DrugMatrix - Regimen: Daily Repeat
Assay type: toxicity, organism-based, Sprague-Dawley
Design: regimen Daily Repeat, gender Male, age 6-8 weeks
Settings: in vivo, po, route oral GAVAGE, vehicle 100 % WATER; for ABSOLUTE BASOPHIL / ABSOLUTE EOSINOPHIL / ABSOLUTE LYMPHOCYTE / ABSOLUTE MONOCYTE / ABSOLUTE SEGMENTED NEUTROPHIL / BASOPHIL / EOSINOPHIL / ERYTHROCYTE COUNT / HEMATOCRIT / HEMOGLOBIN / LEUKOCYTE COUNT / LYMPHOCYTE / MEAN CORPUSCULAR HEMOGLOBIN / MEAN CORPUSCULAR HEMOGLOBIN CONCENTRATION / MEAN CORPUSCULAR VOLUME / MONOCYTE / NEUTROPHIL / NUCLEATED RED BLOOD CELLS / PLATELET COUNT: tissue Blood; for ALANINE AMINOTRANSFERASE / ALBUMIN / ALKALINE PHOSPHATASE / ASPARTATE AMINOTRANSFERASE / BLOOD UREA NITROGEN / CARBON DIOXIDE / CHLORIDE / CHOLESTEROL / CREATINE PHOSPHOKINASE / CREATININE / GLUCOSE / LACTATE DEHYDROGENASE / LIPASE / PHOSPHORUS / POTASSIUM / SODIUM / TOTAL BILIRUBIN / TOTAL PROTEIN / URIC ACID: tissue Plasma
[1] = 0.3 mg/kg, 120 h, dose level Low, time 5 day
[2] = 6 mg/kg, 72 h, dose level High, time 3 day
[3] = 6 mg/kg, 120 h, dose level High, time 5 day

For `Clc1cccc(Cl)c1N=C1NCCN1` [CLONIDINE], the “ABSOLUTE BASOPHIL” value [1] was 0 CELLS/uL, the “ABSOLUTE EOSINOPHIL” value [1] was 0 CELLS/uL and the “ABSOLUTE LYMPHOCYTE” value [1] was 12125.33 CELLS/uL. The “ABSOLUTE MONOCYTE” value [1] was 52.33 CELLS/uL, the “ABSOLUTE SEGMENTED NEUTROPHIL” value [1] was 1322.33 CELLS/uL and the BASOPHIL [1] was 0%. The EOSINOPHIL [1] was 0%, the “ERYTHROCYTE COUNT” value [1] was 5.47 x10E6/uL and the HEMATOCRIT [1] was 34.07%. For the same compound, the HEMOGLOBIN [1] was 13.73 G/DL, the “LEUKOCYTE COUNT” value [1] was 13.5 x10E3/uL and the LYMPHOCYTE [1] was 89.33%. The “MEAN CORPUSCULAR HEMOGLOBIN” value [1] was 25.13 pg, the “MEAN CORPUSCULAR HEMOGLOBIN CONCENTRATION” value [1] was 40.3 G/DL and the “MEAN CORPUSCULAR VOLUME” value [1] was 62.3 fL. The MONOCYTE [1] was 0.33%, the NEUTROPHIL [1] was 10.33% and the “NUCLEATED RED BLOOD CELLS” value [1] was 0 /100WBC. The “PLATELET COUNT” value [1] was 1266.67 x10E3/uL, the “ALANINE AMINOTRANSFERASE” value [1] was 49.67 u/L and the ALBUMIN [1] was 4.07 G/DL. For the same compound, the “ALKALINE PHOSPHATASE” value [1] was 360 u/L, the “ASPARTATE AMINOTRANSFERASE” value [1] was 94 u/L and the “BLOOD UREA NITROGEN” value [1] was 19 mg/dL. The “CARBON DIOXIDE” value [1] was 27 mmol/L, the CHLORIDE [1] was 100.67 MEQ/L and the CHOLESTEROL [1] was 70 mg/dL. For the same compound, the “CREATINE PHOSPHOKINASE” value [1] was 371.67 u/L, the CREATININE [1] was 0.17 mg/dL and the GLUCOSE [1] was 134.33 mg/dL. The “LACTATE DEHYDROGENASE” value [1] was 289.33 u/L, the LIPASE [1] was 9 u/L and the PHOSPHORUS [1] was 11.17 mg/dL. The POTASSIUM [1] was 6.28 MEQ/L, the SODIUM [1] was 140.53 MEQ/L and the “TOTAL BILIRUBIN” value [1] was 0.1 mg/dL. The “TOTAL PROTEIN” value [1] was 5.57 G/DL, the “URIC ACID” value [1] was 1.57 mg/dL and the “ABSOLUTE BASOPHIL” value [2] was 0 CELLS/uL. The “ABSOLUTE EOSINOPHIL” value [2] was 0 CELLS/uL, the “ABSOLUTE LYMPHOCYTE” value [2] was 11339 CELLS/uL and the “ABSOLUTE MONOCYTE” value [2] was 767 CELLS/uL. The “ABSOLUTE SEGMENTED NEUTROPHIL” value [2] was 6827.33 CELLS/uL, the BASOPHIL [2] was 0% and the EOSINOPHIL [2] was 0%. The “ERYTHROCYTE COUNT” value [2] was 6.6 x10E6/uL, the HEMATOCRIT [2] was 40.63% and the HEMOGLOBIN [2] was 16.17 G/DL. The “LEUKOCYTE COUNT” value [2] was 18.93 x10E3/uL, the LYMPHOCYTE [2] was 61.33% and the “MEAN CORPUSCULAR HEMOGLOBIN” value [2] was 24.47 pg. For the same compound, the “MEAN CORPUSCULAR HEMOGLOBIN CONCENTRATION” value [2] was 39.8 G/DL, the “MEAN CORPUSCULAR VOLUME” value [2] was 61.5 fL and the MONOCYTE [2] was 4%. The NEUTROPHIL [2] was 34.67%, the “NUCLEATED RED BLOOD CELLS” value [2] was 0 /100WBC and the “PLATELET COUNT” value [2] was 1516.67 x10E3/uL. For the same compound, the “ALANINE AMINOTRANSFERASE” value [2] was 61 u/L, the ALBUMIN [2] was 3.93 G/DL and the “ALKALINE PHOSPHATASE” value [2] was 306.67 u/L. The “ASPARTATE AMINOTRANSFERASE” value [2] was 172.33 u/L, the “BLOOD UREA NITROGEN” value [2] was 58 mg/dL and the “CARBON DIOXIDE” value [2] was 23.33 mmol/L. For the same compound, the CHLORIDE [2] was 96 MEQ/L, the CHOLESTEROL [2] was 67.33 mg/dL and the “CREATINE PHOSPHOKINASE” value [2] was 987.33 u/L. The CREATININE [2] was 0.52 mg/dL, the GLUCOSE [2] was 154.33 mg/dL and the “LACTATE DEHYDROGENASE” value [2] was 310.33 u/L. It also gave an LIPASE [2] of 8 u/L, a PHOSPHORUS [2] of 12.97 mg/dL and a POTASSIUM [2] of 6.5 MEQ/L. The SODIUM [2] was 140.77 MEQ/L, the “TOTAL BILIRUBIN” value [2] was 0.27 mg/dL and the “TOTAL PROTEIN” value [2] was 6.13 G/DL. For the same compound, the “URIC ACID” value [2] was 2.17 mg/dL, the “ABSOLUTE BASOPHIL” value [3] was 0 CELLS/uL and the “ABSOLUTE EOSINOPHIL” value [3] was 46 CELLS/uL. The “ABSOLUTE LYMPHOCYTE” value [3] was 9488.67 CELLS/uL, the “ABSOLUTE MONOCYTE” value [3] was 118.67 CELLS/uL and the “ABSOLUTE SEGMENTED NEUTROPHIL” value [3] was 2180 CELLS/uL. The BASOPHIL [3] was 0%, the EOSINOPHIL [3] was 0.33% and the “ERYTHROCYTE COUNT” value [3] was 6.57 x10E6/uL. For the same compound, the HEMATOCRIT [3] was 38.83%, the HEMOGLOBIN [3] was 15.23 G/DL and the “LEUKOCYTE COUNT” value [3] was 11.83 x10E3/uL. The LYMPHOCYTE [3] was 81.33%, the “MEAN CORPUSCULAR HEMOGLOBIN” value [3] was 23.2 pg and the “MEAN CORPUSCULAR HEMOGLOBIN CONCENTRATION” value [3] was 39.23 G/DL. For the same compound, the “MEAN CORPUSCULAR VOLUME” value [3] was 59.1 fL, the MONOCYTE [3] was 1% and the NEUTROPHIL [3] was 17.33%. The “NUCLEATED RED BLOOD CELLS” value [3] was 0 /100WBC, the “PLATELET COUNT” value [3] was 916 x10E3/uL and the “ALANINE AMINOTRANSFERASE” value [3] was 33.67 u/L. For the same compound, the ALBUMIN [3] was 4.07 G/DL, the “ALKALINE PHOSPHATASE” value [3] was 207 u/L and the “ASPARTATE AMINOTRANSFERASE” value [3] was 74 u/L. The “BLOOD UREA NITROGEN” value [3] was 20.67 mg/dL, the “CARBON DIOXIDE” value [3] was 30.67 mmol/L and the CHLORIDE [3] was 104 MEQ/L. The CHOLESTEROL [3] was 62.67 mg/dL, the “CREATINE PHOSPHOKINASE” value [3] was 177 u/L and the CREATININE [3] was 0.25 mg/dL. For the same compound, the GLUCOSE [3] was 163 mg/dL, the “LACTATE DEHYDROGENASE” value [3] was 128 u/L and the LIPASE [3] was 9 u/L. For the same compound, the PHOSPHORUS [3] was 8.13 mg/dL, the POTASSIUM [3] was 5.61 MEQ/L and the SODIUM [3] was 148.9 MEQ/L. The “TOTAL BILIRUBIN” value [3] was 0.2 mg/dL, the “TOTAL PROTEIN” value [3] was 5.9 G/DL and the “URIC ACID” value [3] was 0.7 mg/dL.
